# US9408859B2, “Pharmaceutical compositions useful for preventing and treating cancer” (Mitotech SA, priority 2007, dated 2016)
# Columns and labels:
# [1] = system: Mouse Ras-transformed fibroblast cells; assay: Effect on morphology and adherence of Ras-transformed cells; type: cell-based
# Description: The experiment was carried out using cells, transformed with genetic construct, expressing oncogene RAS, and thus modeling conditions of cells underwent cancerous transformation. (see, model description in Levina, et al. (1996), Exp. Cell. Res., November 25; 229(1):159-165).
# Mouse Ras-transformed fibroblast cells had strongly expressed changed morphology (FIG. 1), one close to morphology of metastasizing cancerous cells (decrease in surface square, cell elongation). […] Cells were poorly adherent and spread-eagled what led to monolayer structure disorder.
# However incubation with SkQ1 led to significant changes in cells morphology (FIG. 1). […] Morphological changes correlated with actinic fibrils increase in content, focal contact reinforcement and cell better adherence to the surface.
# [2] = system: human rhabdomyosarcoma cell line (RD); assay: RD cell morphology, attachment and multinuclear cells; type: cell-based
# Description: In the following experiment, a human rhabdomyosarcoma cell line (RD) purchased from the ATCC (#CCL-136) was used. These cells were isolated from a […] 7 years ago and are widely accepted as a model for studies of rhabdomyosarcoma in vitro and in vivo.
# The cells were grown in Dulbecco's modified Eagle's medium (DMEM, Gibco®, Invitrogen, Carlsbad, Calif.) supplemented with 10% FBS. The cells were treated with 20 nM SkQ (SkQ1, SkQR1, SkQB1, or SkQBP1), or with a non-targeted antioxidant (1 mM NAC, or 100 μM Trolox) 24 to 72 hours before evaluation. In some experiments 1 μM of the protonophorous uncoupler FCCP was added 1 hour before the addition of SkQ1 to depolarize the mitochondrial membrane, and thus to prevent the electrophoretic accumulation of SkQ in the mitochondrial interior. The cells were then stained with rabbit polyclonal antibodies against actin (1:1000) (Sigma-Aldrich Corp., Baleras, Russia) and monoclonal antibody DM1A against tubulin (1:1000) (Sigma-Aldrich Corp.), and their morphology examined using an Axiovert fluorescent microscope equipped with objectives 20× (dry) and 100× (oil immersion Neofluar) (Carl Zeiss, Germany).
# HCT116 p53−/− = assay: Growth of human large intestine carcinoma xenografts, inactivated p53; type: in vivo, mouse
# Excerpt: Two human large intestine carcinoma cell sub-lines that differ by p53 status—wild type cells (HCT116 p53+/+)) and cells with inactivated p53 (HCT116 p53−/−)) cell line cultivation see in Bunz et al. (1998) Science, 282:1497-1500; see model description in Sablina et al. (2003), J. Biol. Chem., 278:27362-27371. One million cells were hypodermically implanted into thymus-deprived mice. Mice in each group were divided into 4 sub-groups of 10 mice: one group received water to drink; one group received water with SkQ1 (0.01 nmol) per mouse per day (0.5 nM/kg/day); one group received water with SkQ1 (0.1 nmol) per mouse per day (5 nM/kg/day); one group received water with SkQ1 (1 nmol) per mouse per day (50 nM/kg/day).
# The size of the tumors was evaluated every 3 days. After 4 weeks mice were sacrificed and the tumors removed and fixed for histological assay.
# [3] = system: human rhabdomyosarcoma cell line (RD); assay: Apoptosis in RD cells (Hoechst staining, propidium iodide flow cytometry); type: cell-based; conditions: 20 nM SkQ1 for 24 hours; flow cytometry
# Description: To determine the viability of the cells, chromatine condensation and fragmentation was analyzed in similarly-treated cells (20 nM SkQ or 1 mM NAC or 100 mM Trolox for 24 hours and 1 μm FCCP one hour before SkQ1 where indicated) after staining with Hoechst 3342 (GenScript, Cat. No. L00309, performed according to manufacture manual http://www.genscript.com/tech_guide/TM0361.pdf). The cells were then examined using an Axiovert fluorescent microscope equipped with objectives 20× (dry) and 100× (oil immersion Neofluar) (Carl Zeiss).
# Further evidence of apoptosis was obtained by analysis of DNA content in the cellular population using flow cytometry. Cells were incubated with 0.05% ethanol was added (control) or with 20 nM SkQ1 for 24 hours, and then fixed and stained with propidium iodide (5 μM). They were then analyzed by flow cytometry using a FC-500 FACS (Beckman Coulter, Inc., Brea, Calif.).
# [4] = Tolerance to the treatment and autopsy in mice with A-431 xenografts; type: in vivo
# Description: Tolerance to the treatment was estimated according to the time of death which corresponded to the treatment with each preparation.
# Mice were sacrificed by ether anesthesia overdose. An autopsy was performed, and tumors were then extracted and assayed histologically and immunohistochemically. Tumors were fixed in 10% formaldehyde and set into paraffin wax. Histological assays were carried out on tumor histological sections, stained with hematoxylin and eosin. The number of microvessels was examined by standard immunological method using antibodies to CD34 antigen. Presence of vessel mimicry was estimated by tumor section staining with Schiffs reagent.
# [5] = Mouse life-span when managed in a chamber without sterile aeration; type: in vivo; conditions: SkQ1 added to drinking water
# [6] = Experiment 1, 5.0 nM/kg ip daily day 1-14
# [7] = Experiment 1, 50.0 nM/kg ip daily day 1-14
# [8] = Experiment 3, 5.0 nM/kg ip daily day 1-14
compound,measurement,setting,value
CC1=C(C)C(=O)C(CCCCCCCCCC[P+](c2ccccc2)(c2ccccc2)c2ccccc2)=CC1=O [SkQ1],Mean cell surface square value,[1]; Ras-transformed fibroblasts incubated with SkQ1,increased manifold
same,Monolayer formation,[1]; Ras-transformed fibroblasts treated with SkQ1,formed monolayers similar to those of normal fibroblasts
same,Cell morphology,"[2]; 20 nM, pretreatment for 24 hours",induced the formation of elongated cells
same,Multinuclear cells in surviving cell fraction,[2]; 8th day of cultivation with SkQ1,enriched in multinuclear cells
same,cells remained attached to the surface,[2]; 8th day of cultivation with nM SkQ1,about 4%
same,Effect on tumors with inactivated p53 compared to WT p53,HCT116 p53−/−; SkQ1 in drinking water,stronger effect on the tumor with inactivated p53
same,Tumor growth vs control group receiving pure water,"HCT116 p53−/−; SkQ1 in drinking water, 0.5-50 nM/kg/day, 4 weeks, inactivated p53",suppression of tumor growth
same,dose of maximal effect,HCT116 p53−/−; added to drinking water,5 nM
same,efficient concentration,"HCT116 p53−/−; in drinking water, equals 5 nM/kg/day, stated for the HCT116 study",0.1 nmol per mouse per day
same,"sub-G1 peak (DNA content, propidium iodide)",[3],accumulation of apoptotic bodies
same,Autopsy findings in organs,[4]; [6],no visual signs of pathological changes
same,Treatment tolerance,[4]; [6],satisfactory
same,Autopsy findings in organs,[4]; [7],no pathological changes
same,Treatment tolerance,[4]; [7],satisfactory
same,Autopsy findings in organs,"[4]; Experiment 2, 5.0 nM/kg ip daily day 1-8",no visual signs of pathological changes
same,Autopsy findings in organs,[4]; [8],no visual signs of pathological changes
same,Treatment tolerance,[4]; [8],satisfactory
same,Immunity to infectious diseases (by mouse life-span),[5],increased HIV mice immunity to infectious diseases
